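Results reflect a 48-hour exposure of cells in 96-well plates to compound at five concentrations. TGI is the concentration that stops growth completely.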 Where a SMILES comes first, the peptide text is derived from it. The star is where a group is joined. Cbz = O=C(OCc1ccccc1)*
Key:
Experiment in all cases: growth of human tumour cells (NCI), 48 h
MDA-MB-231 breast = system: MDA-MB-231 breast
RPMI-8226 leukemia = system: RPMI-8226 leukemia
A549 NSCLC = system: A549 NSCLC
K-562 leukemia = system: K-562 leukemia
SN12C renal = system: SN12C renal
IGROV1 ovarian = system: IGROV1 ovarian
SW-620 colon = system: SW-620 colon
SR leukemia = system: SR leukemia
UACC-62 melanoma = system: UACC-62 melanoma
KM12 colon = system: KM12 colon
NCI-H460 lung = system: NCI-H460 lung
RXF 393 renal = system: RXF 393 renal

SMILES	TGI (MDA-MB-231 breast) [µM]	TGI (RPMI-8226 leukemia) [µM]	TGI (A549 NSCLC) [µM]	TGI (K-562 leukemia) [µM]	TGI (SN12C renal) [µM]	TGI (IGROV1 ovarian) [µM]	TGI (SW-620 colon) [µM]	TGI (SR leukemia) [µM]	TGI (UACC-62 melanoma) [µM]	TGI (KM12 colon) [µM]	TGI (NCI-H460 lung) [µM]	TGI (RXF 393 renal) [µM]
CCOC(=O)CCC(NC(=O)OCc1ccccc1)C(=O)NC(CCC(=O)OCC)C(=O)OCC (stereo unspecified) (Cbz-Glu(OEt)-Glu(OEt)-OEt; configuration not given here)	> 100	> 100	> 100	> 100	> 100	> 100	> 100	> 100	> 100	> 100	> 100	> 100
O=C1C(Br)=CC2(C=C1Br)CCNC1=C2C(=O)c2ncccc2C1=O	3.67	2.46	3.32	0.516	2.5	2.03	2.73	2.07	1.84	3.53	1.46	2.65
CCOC(=O)CCC(NC(=O)C(Cc1ccccc1)NC(=O)OCc1ccccc1)C(=O)OCC (stereo not drawn) (Cbz-Phe-Glu(OEt)-OEt; configuration not given here)	29.5	> 76	36.9	> 100	37.7	32.3	34.9	> 68.8	32.5	32.6	38.5	32.1
CS(=O)(=O)N1CC(CCl)c2ccc(O)cc21 (stereo unspecified)	6.16	6.91	11.1	> 100	14.5	4.5	11.5	77.4	28.7	7.83	11.3	4.19
O=C1OCC2OC(=O)c3cc(O)c(O)c(O)c3-c3c(O)c(O)c(O)c4c3C(=O)OC(C2OC(=O)c2cc(O)c(O)c(O)c2-c2c1cc(O)c(O)c2O)C1OC(=O)C2C4=C(O)C(=O)C23Oc2cc(O)c4c(c2[C@H]13)O[C@H](c1ccc(O)c(O)c1)[C@@H](O)C4 (stereo partly specified)	43.5	64.4	> 100	72.3	42	> 100	53.5	> 100	45.6	> 100	> 100	34.9
CC(=O)SC(C[N+](=O)[O-])c1ccc2c(c1)OCO2 (stereo unspecified)	22.3	> 22.7	24.1	> 28.7	14.7	19.8	11.9	7.27	11.3	12.7	26.2	3.41
CCOC(=O)C(NC(=O)c1ccccc1)(N1CCN(c2cc3c(cc2F)c(=O)c(C(=O)O)cn3C2CC2)CC1)C(F)(F)F (stereo unspecified)	31	54.1	> 100	46.6	79.3	92.5	51.1	45.2	47.6	31.7	44.6	36.5
O=C1C=C(Nc2ccc(S(=O)(=O)Nc3nccs3)cc2)c2ccccc2C1=O	71.3	98.5	> 100	> 100	47.2	> 100	43	> 100	53.5	37.7	> 100	> 100
COCCn1cnc2c(Cl)nc(Nc3ccccc3)nc21	75.6	> 100	> 100	> 100	95.4	50.9	> 100	> 100	85.1	> 100	> 100	47.4
C=C1CCCCCCCCC/C=C/1SCCCSC	> 100	> 100	> 100	> 100	> 100	> 100	> 100	> 100	> 100	> 100	> 100	> 100
Cc1[nH]n(-c2nc(O)c(-c3ccccc3)c(=O)[nH]2)c(=O)c1CCO	> 100	> 100	> 100	> 100	> 100	> 100	> 100	> 100	> 100	> 100	> 100	> 100
CC(=O)O[C@@]12CO[C@@H]1CC(O)[C@@]1(C)C(=O)[C@H](O)C3=C(C)C(O)C[C@@](O)(C(OC(=O)c4ccccc4)C12)C3(C)C (stereo partly specified)	66	> 100	> 100	> 100	> 100	> 100	> 100	> 100	3.7	> 89.2	> 100	> 100
CN1CCc2c(sc3[nH]c(=S)[nH]c(=S)c23)C1	> 100	> 100	> 100	> 100	> 100	> 100	> 100	> 100	> 100	> 100	> 100	> 100

From PubChem BioAssay (NCI)
